From ChEMBL document CHEMBL6103585, “Construction and activity evaluation of novel CHS inhibitors against fungal infections” (Eur J Med Chem, 2025)
≈ marks a conversion by molar mass, not a printed value. Calls of active or inactive are those of the source. The rule behind the calls is not given here.

Assays:
Candida albicans [1] = assay: Antifungal activity against Candida albicans ATCC SC5314 assessed as fungal growth inhibition incubated for 72 hrs by broth microdilution method; assay type: functional
Cryptococcus neoformans = assay: Antifungal activity against Cryptococcus neoformans ZKCC 2209 assessed as fungal growth inhibition incubated for 72 hrs by broth microdilution method; assay type: functional
Candida tropicalis = assay: Antifungal activity against Candida tropicalis ATCC 1369 assessed as fungal growth inhibition incubated for 72 hrs by broth microdilution method; assay type: functional
Nakaseomyces glabratus = assay: Antifungal activity against Candida glabrata assessed as fungal growth inhibition incubated for 72 hrs by broth microdilution method; assay type: functional
Aspergillus fumigatus = assay: Antifungal activity against Aspergillus fumigatus KM 8001 assessed as fungal growth inhibition incubated for 72 hrs by broth microdilution method; assay type: functional
HeLa = assay: Cytotoxicity against human HeLa cells incubated for 24 hrs by CCK8 assay; assay type: functional, cell-based
Candida albicans [2] = assay: In vivo antifungal activity against Candida albicans 901 infected in mouse model assessed as reduction in genetic material content in lung at 5 microg/g, iv pre-infected with fungi by intravenous injection followed by compound administration and measured on day 8 by H and E staining based analysis; assay type: functional, organism-based; details: dose 5.0 µg/g, time 8.0 day
[3] = Inhibition of chitin synthase extracted from Candida tropicalis ATCC 1369 using UDP-GlcNAc as substrate incubated for 1 hrs
Candida albicans [4] = assay: Induction of apoptosis in Candida albicans ATCC SC5314 assessed as late apoptotic cells by V-FITC/PI staining based flow cytometric analysis (reference value: 0.40%); assay type: functional
Candida albicans [5] = assay: In vivo antifungal activity against Candida albicans 901 infected in mouse model assessed as expansion of alveolar spaces in lung at 5 microg/g, iv pre-infected with fungi by intravenous injection followed by compound administration and measured on day 8 by H and E staining based analysis; assay type: functional, organism-based; details: dose 5.0 µg/g, time 8.0 day
Candida albicans [6] = assay: In vivo antifungal activity against Candida albicans 901 infected in mouse model assessed as decrease in IFN-gamma protein expression level at 5 microg/g, iv pre-infected with fungi by intravenous injection followed by compound administration and measured on day 8 by Western blotting analysis; assay type: functional, organism-based; details: dose 5.0 µg/g, time 8.0 day
Candida albicans [7] = assay: In vivo antifungal activity against Candida albicans 901 infected in mouse model assessed as decrease in IDO protein expression level at 5 microg/g, iv pre-infected with fungi by intravenous injection followed by compound administration and measured on day 8 by Western blotting analysis; assay type: functional, organism-based; details: dose 5.0 µg/g, time 8.0 day
A549 = assay: Cytotoxicity against human A549 cells incubated for 24 hrs by CCK8 assay; assay type: functional, cell-based; details: A549, 24 h
Candida albicans [8] = assay: Induction of ROS generation in Candida albicans ATCC SC5314 assessed as increase in fluorescence intensity incubated for 12 hrs by fluorescence microscopic analysis; assay type: functional, organism-based
[9] = Binding affinity to chitin synthase (unknown origin) assessed as dissociation constant by SPR analysis
Candida albicans [10] = assay: Fungicidal activity against Candida albicans ATCC SC5314 assessed as live cells (reference value: 92%); assay type: functional
Candida albicans [11] = assay: Antifungal activity against fluconazole-resistant Candida albicans 901 assessed as reduction in fungal growth incubated for 72 hrs by broth microdilution method; assay type: functional
Candida albicans [12] = assay: In vivo antifungal activity against Candida albicans 901 infected in mouse model assessed as decrease in IL-2 protein expression level at 5 microg/g, iv pre-infected with fungi by intravenous injection followed by compound administration and measured on day 8 by Western blotting analysis; assay type: functional, organism-based; details: dose 5.0 µg/g, time 8.0 day
Candida albicans [13] = assay: In vivo antifungal activity against Candida albicans 901 infected in mouse model assessed as decrease in PD-L1 protein expression level at 5 microg/g, iv pre-infected with fungi by intravenous injection followed by compound administration and measured on day 8 by Western blotting analysis; assay type: functional, organism-based; details: dose 5.0 µg/g, time 8.0 day
Candida albicans [14] = assay: Antifungal activity against fluconazole-resistant Candida albicans 17# assessed as reduction in fungal growth incubated for 72 hrs by broth microdilution method; assay type: functional
Candida albicans [15] = assay: Induction of apoptosis in Candida albicans ATCC SC5314 assessed as necrotic cells by V-FITC/PI staining based flow cytometric analysis (reference value: 2.74%); assay type: functional
Candida albicans [16] = assay: Induction of apoptosis in Candida albicans ATCC SC5314 assessed as early apoptotic cells by V-FITC/PI staining based flow cytometric analysis (reference value: 3.51%); assay type: functional
Candida albicans [17] = assay: Antifungal activity against fluconazole-resistant Candida albicans CaR assessed as reduction in fungal growth incubated for 72 hrs by broth microdilution method; assay type: functional
Candida albicans [18] = assay: Antifungal activity against fluconazole-resistant Candida albicans 904 assessed as reduction in fungal growth incubated for 72 hrs by broth microdilution method; assay type: functional
Candida albicans [19] = assay: In vivo antifungal activity against Candida albicans 901 infected in mouse model assessed as body weight gain at 5 microg/g, iv pre-infected with fungi by intravenous injection followed by compound administration and measured on day 8; assay type: functional, organism-based; details: dose 5.0 µg/g, time 8.0 day
Candida albicans [20] = assay: Antifungal activity against fluconazole-resistant Candida albicans 632 assessed as reduction in fungal growth incubated for 72 hrs by broth microdilution method; assay type: functional
Candida albicans [21] = assay: Induction of apoptosis in Candida albicans ATCC SC5314 assessed as viable cells by V-FITC/PI staining based flow cytometric analysis (reference value: 93.3%); assay type: functional
Candida albicans [22] = assay: Fungicidal activity against Candida albicans ATCC SC5314 assessed as dead cells (reference value: 8%); assay type: functional

SMILES | MIC50 (Candida albicans [1]) [µg/mL] | MIC50 (Cryptococcus neoformans) [µg/mL] | MIC50 (Candida tropicalis) [µg/mL] | MIC50 (Nakaseomyces glabratus) [µg/mL] | MIC50 (Aspergillus fumigatus) [µg/mL] | IC50 (HeLa) [µM] | IC50 [3] [µM] | Activity (Candida albicans [4]) [%] | IC50 (A549) [µM] | Kd [9] [µM] | Activity (Candida albicans [10]) [%] | MIC50 (Candida albicans [11]) [µg/mL] | MIC50 (Candida albicans [14]) [µg/mL] | Activity (Candida albicans [15]) [%] | Activity (Candida albicans [16]) [%] | MIC50 (Candida albicans [17]) [µg/mL] | MIC50 (Candida albicans [18]) [µg/mL] | MIC50 (Candida albicans [20]) [µg/mL] | Activity (Candida albicans [21]) [%] | Activity (Candida albicans [22]) [%] | other results
O=C(CNC(=O)c1nc2ccc(Cl)cc2c(=O)[nH]1)Nc1cccnc1 | 8 (≈ 22.4 µM) | 8 (≈ 22.4 µM) | 8 (≈ 22.4 µM) | 4 (≈ 11.2 µM) | ≥ 16 |  |  |  |  |  |  |  |  |  |  |  |  |  |  |  | 
NC(=O)OC[C@H](O)[C@@H](O)[C@H](N)C(=O)N[C@H](C(=O)O)[C@H]1O[C@@H](n2cc(CO)c(=O)[nH]c2=O)[C@H](O)[C@@H]1O [POLYOXIN B] | 4 (≈ 7.88 µM) | 4 (≈ 7.88 µM) | 8 (≈ 15.8 µM) | 2 (≈ 3.94 µM) | ≥ 16 | > 50 | 25.5 | 4.5 | > 50 | 0.00562 | 19 | 4 (≈ 7.88 µM) | 2 (≈ 3.94 µM) | 33 | 4.93 | 8 (≈ 15.8 µM) | 8 (≈ 15.8 µM) | 4 (≈ 7.88 µM) | 57.5 | 81 | Activity (Candida albicans [2]): Active; Activity (Candida albicans [5]): Active; Activity (Candida albicans [6]): Active; Activity (Candida albicans [7]): Active; Activity (Candida albicans [8]): Active; Activity (Candida albicans [12]): Active; Activity (Candida albicans [13]): Active; Activity (Candida albicans [19]): Active
O=C(CNC(=O)c1nc2ccc(Cl)cc2c(=O)[nH]1)NCc1ccccc1 | 4 (≈ 10.8 µM) | ≥ 16 | 2 (≈ 5.39 µM) | 8 (≈ 21.6 µM) | 8 (≈ 21.6 µM) |  | 30.3 |  |  |  |  |  |  |  |  |  |  |  |  |  | 
O=C(NCC(=O)N1CCN(c2ccccc2)CC1)c1nc2ccc(Cl)cc2c(=O)[nH]1 | 0.5 (≈ 1.17 µM) | 2 (≈ 4.7 µM) | 1 (≈ 2.35 µM) | 1 (≈ 2.35 µM) | 4 (≈ 9.39 µM) | > 50 |  | 7.3 | > 50 | 0.0608 | 22 | 8 (≈ 18.8 µM) | 2 (≈ 4.7 µM) | 16.6 | 13.2 | 4 (≈ 9.39 µM) | 4 (≈ 9.39 µM) | 8 (≈ 18.8 µM) | 62.9 | 78 | 
OC(Cn1cncn1)(Cn1cncn1)c1ccc(F)cc1F [FLUCONAZOLE] | 1 (≈ 3.27 µM) | 2 (≈ 6.53 µM) | 0.5 (≈ 1.63 µM) | 1 (≈ 3.27 µM) | 4 (≈ 13.1 µM) |  |  |  |  |  |  | ≥ 16 | ≥ 16 |  |  | ≥ 16 | ≥ 16 | ≥ 16 |  |  | 
O=C(NCC(=O)N1CCN(C(=O)c2ccccc2)CC1)c1nc2ccc(Cl)cc2c(=O)[nH]1 | 0.5 (≈ 1.1 µM) | 4 (≈ 8.81 µM) | 0.5 (≈ 1.1 µM) | 1 (≈ 2.2 µM) | 2 (≈ 4.41 µM) | > 50 | 19.7 | 12.1 | > 50 | 0.00194 | 6 | 8 (≈ 17.6 µM) | 4 (≈ 8.81 µM) | 23.6 | 11.1 | 2 (≈ 4.41 µM) | 2 (≈ 4.41 µM) | 4 (≈ 8.81 µM) | 53.2 | 94 | Activity (Candida albicans [8]): Active
CC(=O)N1CCN(C(=O)CNC(=O)c2nc3ccc(Cl)cc3c(=O)[nH]2)CC1 | 1 (≈ 2.55 µM) | ≥ 16 | 1 (≈ 2.55 µM) | 2 (≈ 5.1 µM) | 8 (≈ 20.4 µM) |  |  |  |  |  |  |  |  |  |  |  |  |  |  |  | 
C[C@@H](c1ncncc1F)[C@](O)(Cn1cncn1)c1ccc(F)cc1F |  |  |  |  |  |  |  |  |  |  |  |  |  |  |  |  |  |  |  |  | Activity (Candida albicans [5]): inactive
